Experimental data reported in ChEMBL document CHEMBL4673322, “Discovery and optimization of a potent and selective indazolamine series of IRAK4 inhibitors” (Bioorg Med Chem Lett, 2021).
≈ marks a conversion by molar mass, not a printed value.

Assays:
[1] = Metabolic stability in rat liver microsomes assessed as intrinsic clearance; type: ADME, Microsome; conditions: read-out: CLH
[2] = Half life in Sprague-Dawley rat at 5 mg/kg, po; type: ADME, organism-based; conditions: in vivo
[3] = Oral bioavailability in Sprague-Dawley rat at 5 mg/kg; type: ADME, organism-based; conditions: in vivo
[4] = Metabolic stability in mouse liver microsomes assessed as intrinsic clearance; type: ADME, Microsome; conditions: read-out: CLH
[5] = AUC in Sprague-Dawley rat at 5 mg/kg, po; type: ADME, organism-based; design: dose 5 mg/kg; conditions: in vivo
[6] = Metabolic stability in human liver microsomes assessed as intrinsic clearance; type: ADME, Microsome; conditions: read-out: CLH
[7] = Cmax in Sprague-Dawley rat at 5 mg/kg, po; type: ADME, organism-based; design: route oral, dose 5 mg/kg; conditions: in vivo
[8] = AUC(0 to 24 hrs) in mouse at 1 mg/kg, iv; type: ADME, organism-based; design: time < 24 hr, route intravenous, dose 1 mg/kg; conditions: in vivo
[9] = AUC (0 to 24 hrs) in dog at 2 mg/kg, po; type: ADME, organism-based, Canis lupus familiaris; design: time < 24 hr, route oral, dose 2 mg/kg; conditions: in vivo
[10] = Oral bioavailability in mouse at 2 mg/kg; type: ADME, organism-based; conditions: in vivo
[11] = Volume of distribution at steady state in mouse at 1 mg/kg, iv; type: ADME, organism-based; conditions: in vivo, read-out: Vdss
[12] = Volume of distribution at steady state in monkey at 0.5 mg/kg, iv; type: ADME, organism-based, Macaca mulatta; conditions: rhesus monkey, in vivo, read-out: Vdss
[13] = AUC (0 to 24 hrs) in Sprague-Dawley rat at 10 mg/kg, po; type: ADME, organism-based; design: time < 24 hr, route oral, dose 10 mg/kg; conditions: in vivo
[14] = Half life in monkey at 0.5 mg/kg, iv; type: ADME, organism-based, Macaca mulatta; conditions: rhesus monkey, in vivo
[15] = Clearance in dog at 0.5 mg/kg, iv; type: ADME, organism-based, Canis lupus familiaris; conditions: in vivo
[16] = Clearance in monkey at 0.5 mg/kg, iv; type: ADME, organism-based, Macaca mulatta; conditions: rhesus monkey, in vivo
[17] = Half life in Sprague-Dawley rat at 10 mg/kg, po; type: ADME, organism-based; conditions: in vivo
[18] = Metabolic stability in monkey liver microsomes assessed as intrinsic clearance; type: ADME, Macaca mulatta, Microsome; conditions: rhesus monkey, read-out: CLH
[19] = Oral bioavailability in dog at 2 mg/kg; type: ADME, organism-based, Canis lupus familiaris; conditions: in vivo
in vivo = conditions: Sprague-Dawley, rat, iv, 1 mg/kg
Description: Clearance in Sprague-Dawley rat at 1 mg/kg, iv

[20] = Apparent permeability across basolateral to apical side; type: ADME; conditions: not told
[21] = AUC(0 to 24 hrs) in mouse at 2 mg/kg, po; type: ADME, organism-based; design: time < 24 hr, route oral, dose 2 mg/kg; conditions: in vivo
[22] = Clearance in mouse at 1 mg/kg, iv; type: ADME, organism-based; conditions: in vivo
[23] = Cmax in Sprague-Dawley rat at 10 mg/kg, po; type: ADME, organism-based; design: route oral, dose 10 mg/kg; conditions: in vivo
[24] = Apparent permeability across apical to basolateral side; type: ADME; conditions: not told
[25] = Half life in dog at 2 mg/kg, po; type: ADME, organism-based, Canis lupus familiaris; conditions: in vivo
[26] = Half life in dog at 0.5 mg/kg, iv; type: ADME, organism-based, Canis lupus familiaris; conditions: in vivo
[27] = Oral bioavailability in monkey at 2 mg/kg; type: ADME, organism-based, Macaca mulatta; conditions: rhesus monkey, in vivo
[28] = Half life in mouse at 1 mg/kg, iv; type: ADME, organism-based; conditions: in vivo
[29] = AUC (0 to 24 hrs) in dog at 0.5 mg/kg, iv; type: ADME, organism-based, Canis lupus familiaris; design: time < 24 hr, route intravenous, dose 0.5 mg/kg; conditions: in vivo
physchem = conditions: FaSSIF, pH 6.5
Description: Solubility in FassIF at pH 6.5

[30] = AUC (0 to 24 hrs) in monkey at 2 mg/kg, po; type: ADME, organism-based, Macaca mulatta; design: time < 24 hr, route oral, dose 2 mg/kg; conditions: rhesus monkey, in vivo
[31] = Metabolic stability in human Hepatocyte assessed as half life; type: ADME, tissue-based; conditions: hepatocytes
[32] = Metabolic stability in dog liver microsomes assessed as intrinsic clearance; type: ADME, Canis lupus familiaris, Microsome; conditions: read-out: CLH
[33] = AUC (0 to 24 hrs) in monkey at 0.5 mg/kg, iv; type: ADME, organism-based, Macaca mulatta; design: time < 24 hr, route intravenous, dose 0.5 mg/kg; conditions: rhesus monkey, in vivo
[34] = Volume of distribution at steady state in dog at 0.5 mg/kg, iv; type: ADME, organism-based, Canis lupus familiaris; conditions: in vivo, read-out: Vdss
[35] = Protein binding in human plasma; type: ADME, cell-free; conditions: read-out: PPB (converted)
[36] = Half life in monkey at 2 mg/kg, po; type: ADME, organism-based, Macaca mulatta; conditions: rhesus monkey, in vivo

CC(C)(O)CCn1cc2cc(NC(=O)c3cccc(C(F)(F)F)n3)c(C(C)(C)O)cc2n1
CLint scaled [1]: 0.187 L/h/kg | half-life [2]: 3.6 h | bioavailability [3]: 84% | CLint scaled [4]: 0.235 L/h/kg | AUC [5]: 18.4 µg·h/mL | CLint scaled [6]: 0.0768 L/h/kg | Cmax [7]: 2.31 µg/mL

CN(C)CCn1cc2cc(NC(=O)c3cccc(C(F)(F)F)n3)c(C(C)(C)O)cc2n1
AUC(0-t) at 24 h [8]: 0.966 µg·h/mL | AUC(0-t) at 24 h [9]: 0.0853 µg·h/mL | bioavailability [10]: 67.3% | CLint scaled [1]: 0.9 L/h/kg | Vd [11]: 2.43 L/kg | Vd [12]: 0.67 L/kg | AUC(0-t) at 24 h [13]: 11.9 µg·h/mL | half-life [14]: 1.96 h | clearance [15]: 3.34 L/h/kg | clearance [16]: 0.292 L/h/kg | half-life [17]: 3.3 h | CLint scaled [4]: 0.529 L/h/kg | CLint scaled [18]: 0.118 L/h/kg | bioavailability [19]: 14.4% | clearance (in vivo): 0.498 L/h/kg | Papp B→A [20]: 227 nm/s | AUC(0-t) at 24 h [21]: 1.3 µg·h/mL | clearance [22]: 1.03 L/h/kg | Cmax [23]: 2.11 µg/mL | Papp A→B [24]: 273 nm/s | CLint scaled [6]: 0.315 L/h/kg | half-life [25]: 6.4 h | half-life [26]: 0.72 h | bioavailability [27]: 49% | half-life [28]: 1.62 h | AUC(0-t) at 24 h [29]: 0.148 µg·h/mL | solubility (physchem): 92.3 µM (≈ 40.2 µg/mL) | AUC(0-t) at 24 h [30]: 3.67 µg·h/mL | half-life [31]: 9.72 h | CLint scaled [32]: 6.96 L/h/kg | AUC(0-t) at 24 h [33]: 1.87 µg·h/mL | Vd [34]: 2.63 L/kg | fraction unbound [35]: 0.014 | half-life [36]: 3.5 h

COc1cc(NC(=O)c2cccc(C(F)(F)F)n2)cc2cn(CCC(C)(C)O)nc12
AUC(0-t) at 24 h [13]: 34.5 µg·h/mL | half-life [17]: 3.5 h | clearance (in vivo): 0.33 L/h/kg | Cmax [23]: 3.32 µg/mL
